According to patent publication US20240010641A1, “N-Linked Glycosylation Inhibitors and Methods of Using Same” (YALE UNIVERSITY, priority 2020, published 2024):

Tests used:
Format in all cases: cell-based
[1] = test system: protein glycosylation in HEK293 cells; assay: Western blots of protein glycoforms after OST inhibitor treatment, HEK293 cells; details: 24 hrs, Western blot, FIG. 1
Experimental: FIG. 1 illustrates Western blots of protein glycoforms after OST inhibitor treatment in vitro. HEK293 cells were treated with each inhibitor for 24 hrs at indicated concentrations. Changes in glycosylation are shown by reduced molecular weight.
(§1) Inhibition of glycosylation is then confirmed by analysis of glycoprotein size using western blots. Increased gel mobility of proteins such as the EGFR or Halo3N indicate loss of protein glycosylation (FIGS. 1-2).

[2] = test system: STT3A (HEK293 STT3B KO cells); assay: Western blots of protein glycoforms, HEK293 cells with knockout of STT3B; details: 24 hrs, Western blot, FIG. 2, indicating enhanced specificity for STT3A
Experimental: FIG. 2 illustrates Western blots of protein glycoforms after OST inhibitor treatment in vitro using HEK293 cells with knockout (KO) of either STT3A or STT3B. Cells were treated with each inhibitor for 24 hrs at indicated concentrations. Changes in glycosylation are shown by reduced molecular weight.
as §1

[3] = test system: N-linked glycosylation (OST) in CHO-ER-LucT cells; assay: CHO-ER-LucT luminescence assay for inhibition of N-linked glycosylation; details: for Emax: 24 h, [compound's fold change-1.0 (DMSO)]/[NGI-1 fold change-1.0 (DMSO)]*100, read-out: Max activity (% NGI-1); for AC50: CHO-ER-LucT cells, 24 hrs exposure, seven-point dose dilution, luminescence
Experimental: The CHO-ER-LucT cells have been previously described (Contessa et al., 2010, Clinical Cancer Research, 16(12):3205-14) and are used for testing analog IC50 for inhibition of N-linked glycosylation in 96 or 384 well plate format. In these cells induction of luminescence is dependent on inhibition of glycosylation (and OST inhibition), and is determined after 24 hrs of exposure to the analog following the addition of luciferin substrate. The luminescent signal is then quantified using standard plate readers that detect luminescence (e.g., Biotek synergy). Experiments are performed over a seven-point dose dilution to generate dose response data and to identify IC50 values and maximal activity compared to controls. Data is transformed to log 10 values to generate a sigmoidal shaped dose response curve and fitted using nonlinear regression (curve fit) in GraphPad Prism7.
All HL compounds were tested in CHO-ER-LucT cells. IC50 (AC50) was estimated in following method: Concentration X is converted to logarithm (log10) to generate sigmoidal shape curve and dose response curve is generated using Nonlinear regression (curve fit) in Prism. EC50 (AC50) is calculated using log(agonist) vs response-(three parameters)] which uses standard Hill slope (=1).
Max activity: [compound's fold change−1.0 (DMSO)]/[NGI−1 fold change−1.0 (DMSO)]*100(%) (Eq. 1)

[4] = test system: N-linked glycosylation in D54; assay: ER-LucT type AC50 determination in D54 cells (NGI-1 only); details: Homo sapiens

Row | Compound | Changes in glycosylation (reduced molecular weight of protein glycoforms) [1] | Effect on glycosylation in STT3B KO cells [2] | Emax [3] | AC50 [3] | AC50 [4]
1 | CCc1cnc(NC(=O)c2cc(S(=O)(=O)N3CCOCC3)ccc2N(C)CC2CC2)s1 [Example 3, 2-((cyclopropylmethyl)(methyl)amino)-N-(5-ethylthiazol-2-yl)-5-(morpholinosulfonyl)benzamide] | more potent effect | more potent effect | 215% | 59 nM | –
2 | CCc1cnc(NC(=O)c2cc(S(=O)(=O)N3CCOCC3)ccc2N(C)C2CCCC2)s1 [Example 4, 2-(cyclopentyl(methyl)amino)-N-(5-ethylthiazol-2-yl)-5-(morpholinosulfonyl)benzamide] | more potent effect | more potent effect | 206% | 87 nM | –
3 | CCc1cnc(NC(=O)c2cc(S(=O)(=O)N3CCOCC3)cnc2N(C)CC2CC2)s1 [Example 26, 2-((cyclopropylmethyl)(methyl)amino)-N-(5-ethylthiazol-2-yl)-5-(morpholinosulfonyl)nicotinamide] | – | – | 104% | 851 nM | –
4 | CCc1cnc(NC(=O)c2cc(S(=O)(=O)N3CCOCC3)nnc2N(C)CC2CC2)s1 [Example 27, 3-((cyclopropylmethyl)(methyl)amino)-N-(5-ethylthiazol-2-yl)-6-(morpholinosulfonyl)pyridazine-4-carboxamide] | – | – | 13.3% | 115 nM | –
5 | CCc1cnc(NC(=O)c2nc(S(=O)(=O)N3CCOCC3)ccc2N(C)CC2CC2)s1 [Example 28, 3-((cyclopropylmethyl)(methyl)amino)-N-(5-ethylthiazol-2-yl)-6-(morpholinosulfonyl)picolinamide] | – | – | 33.3% | 7920 nM | –
6 | Cc1nc(NC(=O)c2cc(S(=O)(=O)N(C)C)cc(F)c2N2CCCC2)sc1C [Example 29, 5-(N,N-dimethylsulfamoyl)-N-(4,5-dimethylthiazol-2-yl)-3-fluoro-2-(pyrrolidin-1-yl)benzamide] | – | – | 62.6% | 4990 nM | –
7 | CCc1cnc(NC(=O)c2cc(S(=O)(=O)N3CCOCC3)c(F)cc2N(C)CC2CC2)s1 [Example 30, 2-((cyclopropylmethyl)(methyl)amino)-N-(5-ethylthiazol-2-yl)-4-fluoro-5-(morpholinosulfonyl)benzamide] | – | – | 96.4% | 371 nM | –
8 | Cc1nc(NC(=O)c2cc(S(=O)(=O)N3CCOCC3)c(F)cc2N(C)CC2CC2)sc1C [Example 31, 2-((cyclopropylmethyl)(methyl)amino)-N-(4,5-dimethylthiazol-2-yl)-4-fluoro-5-(morpholinosulfonyl)benzamide] | – | – | 61.2% | 431 nM | –
9 | Cc1nc(NC(=O)c2cc(S(=O)(=O)N(C)C)c(F)cc2N2CCCC2)sc1C [Example 32, 5-(N,N-dimethylsulfamoyl)-N-(4,5-dimethylthiazol-2-yl)-4-fluoro-2-(pyrrolidin-1-yl)benzamide] | – | – | 52.6% | 3840 nM | –
10 | Cc1ccc(NC(=O)c2cc(S(=O)(=O)N(C)C)ccc2N2CCC(F)(F)C2)cc1 [Example 33, 2-(3,3-difluoropyrrolidin-1-yl)-5-(N,N-dimethylsulfamoyl)-N-(p-tolyl)benzamide] | – | – | 67.5% | 5840 nM | –
11 | Cc1nc(NC(=O)c2cc(S(=O)(=O)N(C)C)ccc2N2CCC(F)(F)C2)sc1C [Example 34, 2-(3,3-difluoropyrrolidin-1-yl)-5-(N,N-dimethylsulfamoyl)-N-(4,5-dimethylthiazol-2-yl)benzamide] | – | – | 76.9% | 738 nM | –
12 | Cc1csc(NC(=O)c2cc(S(=O)(=O)N(C)C)ccc2N2CCC(F)(F)C2)n1 [Example 35, 2-(3,3-difluoropyrrolidin-1-yl)-5-(N,N-dimethylsulfamoyl)-N-(4-methylthiazol-2-yl)benzamide] | – | – | 70% | 3000 nM | –
13 | CCc1cnc(NC(=O)c2cc(S(=O)(=O)N3CCOCC3)ccc2N2CCC(F)(F)C2)s1 [Example 36, 2-(3,3-difluoropyrrolidin-1-yl)-N-(5-ethylthiazol-2-yl)-5-(morpholinosulfonyl)benzamide] | – | – | 137% | 591 nM | –
14 | CCc1cnc(NC(=O)c2cc(S(=O)(=O)N(C)C)ccc2N2CCC(F)(F)C2)s1 [Example 37, 2-(3,3-difluoropyrrolidin-1-yl)-5-(N,N-dimethylsulfamoyl)-N-(5-ethylthiazol-2-yl)benzamide] | – | – | 126% | 565 nM | –
15 | Cc1nc(NC(=O)c2cc(S(=O)(=O)N3CCOCC3)ccc2N2CCC(F)(F)C2)sc1C [Example 38, 2-(3,3-difluoropyrrolidin-1-yl)-N-(4,5-dimethylthiazol-2-yl)-5-(morpholinosulfonyl)benzamide] | – | – | 42.8% | 748 nM | –
16 | Cc1cnc(NC(=O)c2cc(S(=O)(=O)N(C)C)ccc2N2CCCC2)s1 [NGI-1, 5-(N,N-Dimethylsulfamoyl)-N-(5-methylthiazol-2-yl)-2-(pyrrolidin-1-yl)benzamide, reference compound] | – | – | 100% | 1110 nM | 712 nM
